These molecules were tested against IRAK4 (Homo sapiens (Human), UniProt Q9NWZ3) (assay: In vitro IRAK4 phosphorylation activity assay). Conditions: [γ-33P]-ATP, myelin basic protein substrate, 40 minutes at room temperature; categories.
IRAK4, sequence (Q9NWZ3 whole entry): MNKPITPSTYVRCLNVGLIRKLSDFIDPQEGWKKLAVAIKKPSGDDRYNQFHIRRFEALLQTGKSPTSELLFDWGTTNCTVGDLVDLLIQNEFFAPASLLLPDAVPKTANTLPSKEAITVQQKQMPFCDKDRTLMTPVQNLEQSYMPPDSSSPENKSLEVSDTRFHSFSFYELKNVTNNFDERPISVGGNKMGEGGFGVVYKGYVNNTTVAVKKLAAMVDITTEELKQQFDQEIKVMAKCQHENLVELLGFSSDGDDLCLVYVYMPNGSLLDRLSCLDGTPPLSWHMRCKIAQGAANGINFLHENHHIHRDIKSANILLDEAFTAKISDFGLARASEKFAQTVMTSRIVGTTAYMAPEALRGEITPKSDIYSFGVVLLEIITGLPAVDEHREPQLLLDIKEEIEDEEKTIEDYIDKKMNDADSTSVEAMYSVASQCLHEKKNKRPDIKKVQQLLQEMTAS
Assay type: biochemical
Description: In vitro IRAK4 analysis was performed using N-(1H-imidazol-2-yl)benzamide compounds according to the present invention. All compounds were prepared by dissolving in DMSO. N-(1H-imidazol-2-yl)benzamide compound according to the present invention and other elements for the reaction were added to an assay well. In the standard Kinase Profiler service the preincubation step between the N-(1H-imidazol-2-yl)benzamide compound and kinase was not performed before the reaction.
To the positive control well, all reactants except for the N-(1H-imidazol-2-yl)benzamide compound according to the present invention were added, and DMSO was added to remove the solvent effect. A known control inhibitor having the following structure was added to the blank wells to inhibit kinase activity and establish a base-line.
IRAK4 was incubated with 8 mM MOPS pH 7.0, 0.2 mM EDTA, 0.33 mg/mL myelin basic protein, 10 mM magnesium acetate and [γ-33P]-ATP (specific activity approx. 500 cpm/pmol, concentration as required). The reaction was initiated by the addition of the MgATP mix. After incubation for 40 minutes at room temperature, the reaction was stopped by the addition of 3% phosphoric acid solution. 10 μL of the reaction was then spotted onto a P30 filtermat and washed three times for 5 minutes in 75 mM phosphoric acid and once in methanol prior to drying and scintillation counting.
The results are shown in Table 26 below, where the phosphorylation activity of IC50 values for IRAK4 is shown in categories (A: <50 nM, B: 50-100 nM, C: >100 nM).
For `Cn1cc(-c2cccc(C(=O)Nc3nc(CCCC(=O)Nc4ccncc4)cn3-c3ccccc3)c2)cn1` [Example 150, 3-(1-methyl-1H-pyrazol-4-yl)-N-(4-(4-oxo-4-(pyridin-4-ylamino)butyl)-1-phenyl-1H-imidazol-2-yl)benzamide], the IC50 was < 50 nM. `O=C(CCCc1cn(-c2ccccc2)c(NC(=O)c2cccc(-c3cn[nH]c3)c2)n1)Nc1ccccc1` [Example 52, N-(4-(4-oxo-4-(phenylamino)butyl)-1-phenyl-1H-imidazol-2-yl)-3-(1H-pyrazol-4-yl)benzamide] was tested, and the IC50 was < 50 nM. For `O=C(Nc1nc(CCCCCCO)cn1-c1ccccc1)c1cccc(-c2cn[nH]c2)c1` [Example 121, N-(4-(6-hydroxyhexyl)-1-phenyl-1H-imidazol-2-yl)-3-(1H-pyrazol-4-yl)benzamide], the IC50 was < 50 nM. In the case of `O=C(CCCc1cn(-c2ccccc2)c(NC(=O)c2cccc(-c3ccc4[nH]ncc4c3)c2)n1)NC1CC1` [Example 245, N-(4-(4-(cyclopropylamino)-4-oxobutyl)-1-phenyl-1H-imidazol-2-yl)-3-(1H-indazol-5-yl)benzamide], the IC50 is reported as < 50 nM. For `COC[C@@H]1CCCN1NC(=O)CCCCCc1cn(-c2ccccc2)c(NC(=O)c2cccc(-c3cn[nH]c3)c2)n1` [Example 98, (S)—N-(4-(6-((2-(methoxymethyl)pyrrolidin-1-yl)amino)-6-oxohexyl)-1-phenyl-1H-imidazol-2-yl)-3-(1H-pyrazol-4-yl)benzamide], the IC50 was < 50 nM. `O=C(Nc1nc(CCCCCN2CCCCC2)cn1-c1ccccc1)c1cccc(-c2cn[nH]c2)c1` [Example 118, N-(1-phenyl-4-(5-(piperidin-1-yl)pentyl)-1H-imidazol-2-yl)-3-(1H-pyrazol-4-yl)benzamide] was tested, and the IC50 was < 50 nM. For `O=C(O)CCc1cn(-c2ccccc2)c(NC(=O)c2cccc(-c3cn[nH]c3)c2)n1` [Example 7, 3-(2-(3-(1H-pyrazol-4-yl)benzamido)-1-phenyl-1H-imidazol-4-yl)propanoic acid], the IC50 was < 50 nM. In the case of `O=C(Nc1nc(CCCCCCN2CCOCC2)cn1-c1ccccc1)c1cccc(-c2cn[nH]c2)c1` [Example 123, N-(4-(6-morpholinohexyl)-1-phenyl-1H-imidazol-2-yl)-3-(1H-pyrazol-4-yl)benzamide], the IC50 is reported as < 50 nM. For `Cn1cc(-c2cccc(C(=O)Nc3nc(CCCC(=O)N4CCCC[C@@H]4C(F)(F)F)cn3-c3ccccc3)c2)cn1` [Example 176, (R)-3-(1-methyl-1H-pyrazol-4-yl)-N-(4-(4-oxo-4-(2-(trifluoromethyl)piperidin-1-yl)butyl)-1-phenyl-1H-imidazol-2-yl)benzamide], the IC50 was < 50 nM. For `Cn1cc(-c2cccc(C(=O)Nc3nc(CCCCCCN4CCCC4)cn3-c3ccccc3)c2)cn1` [Example 222, 3-(1-methyl-1H-pyrazol-4-yl)-N-(1-phenyl-4-(6-(pyrrolidin-1-yl)hexyl)-1H-imidazol-2-yl)benzamide], the IC50 was < 50 nM. In the case of `O=C(CCc1cn(-c2ccccc2)c(NC(=O)c2cccc(-c3c[nH]nc3C(F)(F)F)c2)n1)Nc1ccccc1` [Example 3, N-(4-(3-oxo-3-(phenylamino)propyl)-1-phenyl-1H-imidazol-2-yl)-3-(3-(trifluoromethyl)-1H-pyrazol-4-yl)benzamide], the IC50 is reported as > 100 nM. In the case of `Nc1ccc(-c2cccc(C(=O)Nc3nc(CCCCN4CCCC4=O)cn3-c3ccccc3)c2)cn1` [Example 277, 3-(6-aminopyridin-3-yl)-N-(4-(4-(2-oxopyrrolidin-1-yl)butyl)-1-phenyl-1H-imidazol-2-yl)benzamide], the IC50 is reported as < 50 nM. In the case of `O=C(Nc1nc(CCC(=O)N2CCN(Cc3ccc(OC(F)(F)F)cc3)CC2)cn1-c1ccccc1)c1cccc(-c2cn[nH]c2)c1` [Example 14, N-(4-(3-oxo-3-(4-(4-(trifluoromethoxy)benzyl)piperazin-1-yl)propyl)-1-phenyl-1H-imidazol-2-yl)-3-(1H-pyrazol-4-yl)benzamide], the IC50 is reported as > 100 nM. In the case of `O=C(Nc1nc(CCCCCC(=O)N2CCCC2)cn1-c1ccccc1)c1cccc(-c2ccc3[nH]ncc3c2)c1` [Example 240, 3-(1H-indazol-5-yl)-N-(4-(6-oxo-6-(pyrrolidin-1-yl)hexyl)-1-phenyl-1H-imidazol-2-yl)benzamide], the IC50 is reported as < 50 nM. `Cn1ncc(-c2cccc(C(=O)Nc3nc(CCCC(=O)NC4CC4)cn3-c3ccccc3)c2)c1F` [Example 232, N-(4-(4-(cyclopropylamino)-4-oxobutyl)-1-phenyl-1H-imidazol-2-yl)-3-(5-fluoro-1-methyl-1H-pyrazol-4-yl)benzamide] gave an IC50 of 50 to 100 nM. With `O=C(Nc1nc(CCCCN2CCCC2=O)cn1-c1ccccc1)c1cccc(-c2ccc3[nH]ncc3c2)c1` [Example 258, 3-(1H-indazol-5-yl)-N-(4-(4-(2-oxopyrrolidin-1-yl)butyl)-1-phenyl-1H-imidazol-2-yl)benzamide] the IC50 was < 50 nM. In the case of `O=C(Nc1nc(CCCCCCN2CCCCC2)cn1-c1ccccc1)c1cccc(-c2ccc3[nH]ncc3c2)c1` [Example 252, 3-(1H-indazol-5-yl)-N-(1-phenyl-4-(6-(piperidin-1-yl)hexyl)-1H-imidazol-2-yl)benzamide], the IC50 is reported as < 50 nM. In the case of `Cn1cc(-c2cccc(C(=O)Nc3nc(CCCC(=O)N4CCN(S(C)(=O)=O)CC4)cn3-c3ccccc3)c2)cn1` [Example 206, 3-(1-methyl-1H-pyrazol-4-yl)-N-(4-(4-(4-(methylsulfonyl)piperazin-1-yl)-4-oxobutyl)-1-phenyl-1H-imidazol-2-yl)benzamide], the IC50 is reported as < 50 nM. In the case of `C[C@@H]1CCCCN1C(=O)CCCCc1cn(-c2ccccc2)c(NC(=O)c2cccc(-c3cn[nH]c3)c2)n1` [Example 83, (R)—N-(4-(5-(2-methylpiperidin-1-yl)-5-oxopentyl)-1-phenyl-1H-imidazol-2-yl)-3-(1H-pyrazol-4-yl)benzamide], the IC50 is reported as < 50 nM. `O=C(CCc1cn(-c2ccccc2)c(NC(=O)c2cccc(-c3cn[nH]c3)c2)n1)Nn1cnnc1` [Example 21, N-(4-(3-((4H-1,2,4-triazol-4-yl)amino)-3-oxopropyl)-1-phenyl-1H-imidazol-2-yl)-3-(1H-pyrazol-4-yl)benzamide] gave an IC50 of 50 to 100 nM. For `O=C(CCCc1cn(-c2ccccc2)c(NC(=O)c2cccc(-c3cnn(C(F)(F)F)c3)c2)n1)NC1CC1` [Example 236, N-(4-(4-(cyclopropylamino)-4-oxobutyl)-1-phenyl-1H-imidazol-2-yl)-3-(1-(trifluoromethyl)-1H-pyrazol-4-yl)benzamide], the IC50 was < 50 nM. For `O=C(CCc1cn(Cc2ccccc2)c(NC(=O)c2cccc(-c3cn[nH]c3)c2)n1)Nc1ccccc1` [Example 292, N-(1-benzyl-4-(3-oxo-3-(phenylamino)propyl)-1H-imidazol-2-yl)-3-(1H-pyrazol-4-yl)benzamide], the IC50 was > 100 nM. In the case of `Cn1cc(-c2cccc(C(=O)Nc3nc(CCCC(=O)NCCCN4CCCCC4)cn3-c3ccccc3)c2)cn1` [Example 158, 3-(1-methyl-1H-pyrazol-4-yl)-N-(4-(4-oxo-4-((3-(piperidin-1-yl)propyl)amino)butyl)-1-phenyl-1H-imidazol-2-yl)benzamide], the IC50 is reported as < 50 nM. In the case of `Cn1cc(-c2cccc(C(=O)Nc3nc(CCCCCCNC(=O)C4CC4)cn3-c3ccccc3)c2)cn1` [Example 228, N-(4-(6-(cyclopropanecarboxamido)hexyl)-1-phenyl-1H-imidazol-2-yl)-3-(1-methyl-1H-pyrazol-4-yl)benzamide], the IC50 is reported as < 50 nM. For `CN1CCN(NC(=O)CCc2cn(-c3ccccc3)c(NC(=O)c3cccc(-c4cn[nH]c4)c3)n2)CC1` [Example 9, N-(4-(3-((4-methylpiperazin-1-yl)amino)-3-oxopropyl)-1-phenyl-1H-imidazol-2-yl)-3-(1H-pyrazol-4-yl)benzamide], the IC50 was > 100 nM. With `O=C(Nc1nc(CCC(=O)N2CC[C@H](C(=O)O)C2)cn1-c1ccccc1)c1cccc(-c2cn[nH]c2)c1` [Example 26, (S)-1-(3-(2-(3-(1H-pyrazol-4-yl)benzamido)-1-phenyl-1H-imidazol-4-yl)propanoyl)pyrrolidine-3-carboxylic acid] the IC50 was > 100 nM. `O=C(Nc1nc(CCCCCCN2CCCCC2=O)cn1-c1ccccc1)c1cccc(-c2ccc3[nH]ncc3c2)c1` [Example 260, 3-(1H-indazol-5-yl)-N-(4-(6-(2-oxopiperidin-1-yl)hexyl)-1-phenyl-1H-imidazol-2-yl)benzamide] was tested, and the IC50 was < 50 nM. With `C[C@H]1CCCN1C(=O)CCc1cn(-c2ccccc2)c(NC(=O)c2cccc(-c3cn[nH]c3)c2)n1` [Example 24, (S)—N-(4-(3-(2-methylpyrrolidin-1-yl)-3-oxopropyl)-1-phenyl-1H-imidazol-2-yl)-3-(1H-pyrazol-4-yl)benzamide] the IC50 was < 50 nM. `O=C(Nc1nc(CCC(=O)N2CCCC2)cn1-c1ccccc1)c1cccc(-c2cn[nH]c2)c1` [Example 28, N-(4-(3-oxo-3-(pyrrolidin-1-yl)propyl)-1-phenyl-1H-imidazol-2-yl)-3-(1H-pyrazol-4-yl)benzamide] was tested, and the IC50 was < 50 nM. For `COC[C@H]1CCCN1C(=O)CCCCCc1cn(-c2ccccc2)c(NC(=O)c2cccc(-c3cn[nH]c3)c2)n1` [Example 101, (R)—N-(4-(6-(2-(methoxymethyl)pyrrolidin-1-yl)-6-oxohexyl)-1-phenyl-1H-imidazol-2-yl)-3-(1H-pyrazol-4-yl)benzamide], the IC50 was < 50 nM. Molecule `COC[C@@H]1CCCN1C(=O)Cc1cn(-c2ccccc2)c(NC(=O)c2cccc(-c3cn[nH]c3)c2)n1` [Example 46, (S)—N-(4-(2-(2-(methoxymethyl)pyrrolidin-1-yl)-2-oxoethyl)-1-phenyl-1H-imidazol-2-yl)-3-(1H-pyrazol-4-yl)benzamide] has an IC50 of 50 to 100 nM.
